Test [1] has as its target T1, human adenosine A2A receptor (Homo sapiens, UniProt P29274).
T1 construct: expressed in transfected cells; host or cells: HEK293 cells (HEK293hA2AR), from Dr. J. Wang (Biogen/IDEC); membrane preparation
Description: Radioligand displacement assay, human adenosine A2A receptor ([3H]ZM241385, HEK293hA2AR membranes). The format is binding. Conditions: for A2A displacement at 10 µM: test compound 10 µM; for A2A displacement at 10 µM / Ki: n = 3. How it is done:
(§1) Human embryonic kidney 293 cells stably expressing the human adenosine A2A receptor (HEK293hA2AR) were kindly provided by Dr. J. Wang (Biogen/IDEC, Cambridge, MA, USA), CHO-spap cells stably expressing the wild-type (WT) hA2B receptor (CHO-spap-hA2BR) were kindly provided by S. J. Dowell (GlaxoSmithKline, Brentfort, UK).
(§2) All cells were grown to 80–90% confluency and detached from plates by scraping them into 5 mL phosphate-buffered saline. Detached cells were collected and centrifuged at 200 g for 5 min. Pellets derived from 100 15 cm Ø plates were pooled and resuspended in 70 mL of ice-cold 50 mM tris(hydroxymethyl)aminomethane (Tris)-HCl buffer, pH 7.4. A Heidolph Diax 900 homogenizer was used to homogenize the cell suspension. Membranes and the cytosolic fraction were separated by centrifugation at 100,000 g in a Beckman Optima LE-80 K ultracentrifuge (Beckman Coulter, Fullerton, CA, USA) at 4 °C for 20 min. The pellet was resuspended in 35 mL of the Tris-HCl buffer, and the homogenization and centrifugation steps were repeated. Tris-HCl buffer (25 mL) was used to resuspend the pellet, and adenosine deaminase (ADA) was added (0.8 U/mL) to break down endogenous adenosine. Membranes were stored in 250 µL and 500 µL aliquots at −80 °C. Total protein concentrations were measured using the bicinchoninic acid (BCA) method.
Nonspecific binding was determined in the presence of 100 µM adenosine-5-N-ethyluronamide (NECA). Incubations were terminated by rapid vacuum filtration to separate the bound and free radioligand through prewetted 96-well GF/B filter plates using a PerkinElmer Filtermate-harvester (Perkin Elmer, Groningen, The Netherlands). Filters were subsequently washed 12 times with ice-cold 50 mM Tris-HCl, pH 7.4.
(§3) The plates of all four adenosine receptor assays were dried at 55 °C after which MicroscintTM-20-cocktail was added (Perkin Elmer, Groningen, The Netherlands).
(§4) All experimental data were analyzed using the non-linear regression curve fitting program GraphPad Prism 7.0 (GraphPad Software Inc., San Diego, CA, USA). IC50 values obtained from competition displacement binding data were converted into Ki values using the Cheng–Prusoff equation.

The target of a further test is T2, hA2B receptor (Homo sapiens, UniProt P29275).
T2 construct: expressed in transfected cells; host or cells: CHO-spap cells (CHO-spap-hA2BR), from S. J. Dowell (GlaxoSmithKline); membrane preparation
T2 sequence (P29275 1-332): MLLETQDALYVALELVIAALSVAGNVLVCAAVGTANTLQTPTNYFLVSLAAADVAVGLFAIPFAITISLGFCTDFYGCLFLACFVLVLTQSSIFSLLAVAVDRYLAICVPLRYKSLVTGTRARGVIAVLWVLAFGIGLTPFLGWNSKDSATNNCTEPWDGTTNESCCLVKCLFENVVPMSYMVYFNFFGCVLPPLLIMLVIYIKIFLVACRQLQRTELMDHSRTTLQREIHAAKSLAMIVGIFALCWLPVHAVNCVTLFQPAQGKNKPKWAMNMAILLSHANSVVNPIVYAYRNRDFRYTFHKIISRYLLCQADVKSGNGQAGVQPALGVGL
The test is described as follows: Radioligand displacement assay, human adenosine A2B receptor ([3H]PSB-603, CHO-spap-hA2BR membranes). The format is binding. Conditions: for Ki / A2B displacement at 1 µM: n = 3; for A2B displacement at 1 µM: footnote a: test compound 1 µM. How it is done:
as §1
Chinese hamster ovary cells stably expressing the […] and a reporter gene, the secreted placental alkaline phosphatase, (CHO-spap-hA2BR) were grown in DMEM and Ham’s F12 medium (1:1) supplemented with 10% (v/v) newborn calf serum, 100 µg/mL streptomycin, 100 IU/mL penicillin, 1 mg/mL G418, and 0.4 mg/mL hygromycin at 37 °C and 5% CO2.
as §2
A2B Receptor: Membrane aliquots containing 30 µg (CHO-spap-hA2BR) total protein were incubated in a total volume of 100 µL assay buffer (0.1% CHAPS in 50 mM TrisHCl, pH 7.4) at 25 °C for 2 h. […] Nonspecific binding was determined in the presence of 10 µM ZM241385. Incubations were terminated by rapid vacuum filtration to separate the bound and free radioligand through prewetted 96-well GF/B filter plates using a PerkinElmer Filtermate-harvester (Perkin Elmer, Groningen, the Netherlands). Filters were subsequently washed 12 times with ice-cold 0.1% BSA in 50 mM Tris-HCl, pH 7.4.
as §3, §4
A general note: Loss of bound radioactivity is the signal in a displacement assay; it reports binding, not function.

Setting [2] is: [3H]PSB-603, read-out: A2B Ki ± SEM.
Where [3] appears, read: [3H]ZM241385, read-out: A2A Ki ± SEM.
Setting [4] is: footnote a: tested at 1 µM, read-out: A2A Ki (bound, footnote a).
Where [5] appears, read: footnote a: tested at 1 µM, read-out: A2B Ki (bound, footnote a).

Read-outs that look alike come from different tables or passages of the source. A value given as a limit tells only on which side of the number the result lay.

T1 sequence (P29274 whole entry): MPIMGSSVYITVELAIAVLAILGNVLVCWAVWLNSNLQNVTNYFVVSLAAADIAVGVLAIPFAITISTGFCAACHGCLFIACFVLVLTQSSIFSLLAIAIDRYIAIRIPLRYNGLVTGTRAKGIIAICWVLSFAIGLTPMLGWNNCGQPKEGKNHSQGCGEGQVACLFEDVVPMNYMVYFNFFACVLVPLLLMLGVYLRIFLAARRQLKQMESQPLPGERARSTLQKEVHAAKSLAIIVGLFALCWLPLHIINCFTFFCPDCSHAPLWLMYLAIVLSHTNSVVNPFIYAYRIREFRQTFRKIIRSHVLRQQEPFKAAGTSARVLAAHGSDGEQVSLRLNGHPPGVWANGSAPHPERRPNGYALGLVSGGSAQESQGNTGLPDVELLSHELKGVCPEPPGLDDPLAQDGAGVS

For the compound `CSc1cc(N)c2ncn([C@H]3[C@H](O)[C@H](O)[C@]4(CO)C[C@H]34)c2n1` [Compound 17, (1R,2R,3S,4R,5S)-4-(7-Amino-5-methylthio-3H-imidazo[4,5-b]pyridin-3-yl)-1-(hydroxymethyl)bicyclo[3.1.0]hexane-2,3-diol], the “A2A displacement at 10 µM” value in test [1] turned out to be 3%. Also, the inhibitory constant (Ki) on hA2B receptor (setting [2]) was more than 10 µM.

On to `CSc1nc(N(Cc2ccccc2)Cc2ccccc2)c2ncn([C@H]3[C@H](O)[C@H](O)[C@]4(CCl)C[C@H]34)c2n1` [Compound 31, (1S,2R,3S,4R,5S)-4-[6-(Dibenzylamino)-2-methylthio-9H-purin-9-yl]-1-(chloromethyl)bicyclo[3.1.0]hexane-2,3-diol], for which the Ki (in test [1] (setting [3]); at hA2B receptor (setting [2])) was more than 10 µM each time.

As to `CSc1nc(N)c2ncn([C@H]3[C@H](O)[C@H](O)[C@]4(Cn5cc(C(=O)O)nn5)C[C@H]34)c2n1` [Compound 44, 1-{[(1R,2R,3S,4R,5S)-4-(6-Amino-2-methylthio-9H-purin-9-yl)-2,3-dihydroxybicyclo[3.1.0]hex-1-yl]methyl}-1H-1,2,3-triazole-4-carboxylic acid], the inhibition constant (Ki) in test [1] (setting [4]) was more than 1 µM. Moreover, the “A2B displacement at 1 µM” value on hA2B receptor was 2% ^a.

As for `Nc1ncnc2c1ncn2[C@H]1[C@H](O)[C@H](O)[C@]2(CO)C[C@H]12` [Compound 36, (N)-methanocarba adenosine], the Ki in test [1] (setting [3]) was 1.81 ± 0.11 µM; on hA2B receptor (setting [2]), more than 10 µM. Moreover, the “fold lower affinity towards A2A receptor than A3” value in test [1] (relative to A3 Ki) is recorded as 2 fold. On hA2B receptor, the “affinity at the A2B subtype” value is on record as “no affinity”.

Regarding `COC(=O)Cc1cn(C[C@@]23C[C@@H]2[C@@H](n2cnc4c(N)nc(SC)nc42)[C@H](O)[C@@H]3O)nn1` [Compound 41, Methyl 2-(1-{[(1R,2R,3S,4R,5S)-4-(6-amino-2-methylthio-9H-purin-9-yl)-2,3-dihydroxybicyclo[3.1.0]hex-1-yl]methyl}-1H-1,2,3-triazol-4-yl)acetate], the Ki (in test [1] (setting [4]); at hA2B receptor (setting [5])) was more than 1 µM throughout.

Take `Nc1cc(Cl)c2ncn([C@H]3[C@H](O)[C@H](O)[C@]4(CO)C[C@H]34)c2n1` [Compound 11, (1R,2R,3S,4R,5S)-4-(5-Amino-7-chloro-3H-imidazo[4,5-b]pyridin-3-yl)-1-(hydroxymethyl)bicyclo[3.1.0]hexane-2,3-diol]: the “A2A displacement at 10 µM” value in test [1] is 4%. Further, the Ki at hA2B receptor (setting [2]) was more than 10 µM.

On to `CSc1nc(N)c2ncn([C@H]3[C@H](O)[C@H](O)[C@]4(Cn5cc(CCC(=O)O)nn5)C[C@H]34)c2n1` [Compound 46], for which the Ki in test [1] (setting [4]) is more than 1 µM. In addition, the “A2B displacement at 1 µM” value at hA2B receptor is listed as 1% ^a.

On to `CSc1nc(N(Cc2ccccc2)Cc2ccccc2)c2ncn([C@H]3[C@H](O)[C@H](O)[C@]4(CO)C[C@H]34)c2n1` [Compound 30, (1R,2R,3S,4R,5S)-4-[6-(Dibenzylamino)-2-methylthio-9H-purin-9-yl]-1-(hydroxymethyl)bicyclo[3.1.0]hexane-2,3-diol], for which, in test [1], the “A2A displacement at 10 µM” value worked out at 13%. Further, the Ki at hA2B receptor (setting [2]) is more than 10 µM.

Turning to `CCN(CC)CC.CSc1nc(N)c2ncn([C@H]3[C@H](O)[C@H](O)[C@]4(CNS(=O)(=O)CC(=O)O)C[C@H]34)c2n1` [Compound 48, Triethylammonium 2-(N-{[(1R,2R,3S,4R,5S)-4-(6-amino-2-methylthio-9H-purin-9-yl)-2,3-dihydroxybicyclo[3.1.0]hex-1-yl]methyl}sulfamoyl)acetate], the Ki (in test [1] (setting [4]); on hA2B receptor (setting [5])) was more than 1 µM throughout.

Turning to `COC(=O)c1cn(C[C@@]23C[C@@H]2[C@@H](n2cnc4c(N)nc(SC)nc42)[C@H](O)[C@@H]3O)nn1` [Compound 40, Methyl 1-{[(1R,2R,3S,4R,5S)-4-(6-amino-2-methylthio-9H-purin-9-yl)-2,3-dihydroxybicyclo[3.1.0]hex-1-yl]methyl}-1H-1,2,3-triazole-4-carboxylate], the “A2A displacement at 10 µM” value in test [1] is listed as 3%. Also, the inhibition constant Ki at hA2B receptor (setting [2]) is more than 10 µM.

Take `CSc1nc(N)c2ncn([C@H]3[C@H](O)[C@H](O)[C@]4(Cn5cc(CN)nn5)C[C@H]34)c2n1` [Compound 43, (1R,2R,3S,4R,5S)-4-(6-Amino-2-methylthio-9H-purin-9-yl)-1-{[4-(aminomethyl)-1H-1,2,3-triazol-1-yl]methyl}bicyclo[3.1.0]hexane-2,3-diol]: the “A2A displacement at 10 µM” value in test [1] was 3%. Further, at hA2B receptor (setting [2]), the Ki was more than 10 µM.

Consider `CSc1nc(N)c2ncn([C@H]3[C@H](O)[C@H](O)[C@]4(Cn5cc(CC(=O)O)nn5)C[C@H]34)c2n1` [Compound 45, 2-(1-{[(1R,2R,3S,4R,5S)-4-(6-Amino-2-methylthio-9H-purin-9-yl)-2,3-dihydroxybicyclo[3.1.0]hex-1-yl]methyl}-1H-1,2,3-triazol-4-yl)acetic acid], for which the Ki in test [1] (setting [4]) was more than 1 µM. Also, on hA2B receptor, the “A2B displacement at 1 µM” value is 5% ^a.

Regarding `CSc1cc(NCc2ccccc2)c2ncn([C@H]3[C@H](O)[C@H](O)[C@]4(CO)C[C@H]34)c2n1` [Compound 14, (1R,2R,3S,4R,5S)-4-[7-(Benzylamino)-5-methylthio-3H-imidazo[4,5-b]pyridin-3-yl]-1-(hydroxymethyl)bicyclo[3.1.0]hexane-2,3-diol], the “A2A displacement at 10 µM” value in test [1] is recorded as 4%. The inhibition constant (Ki) at hA2B receptor (setting [2]) is more than 10 µM.

For `CCN(CC)CC.CSc1nc(N)c2ncn([C@H]3[C@H](O)[C@H](O)[C@]4(CNc5c(O)c(=O)c5=O)C[C@H]34)c2n1` [Compound 47, Triethylammonium 2-{[(1R,2R,3S,4R,5S)-4-(6-Amino-2-methylthio-9H-purin-9-yl)-2,3-dihydroxybicyclo[3.1.0]hex-1-yl]methyl}amino-3,4-dioxocyclobut-1-en-1-olate], the Ki (in test [1] (setting [4]); on hA2B receptor (setting [5])) was more than 1 µM throughout.

Turning to `OC[C@@]12C[C@@H]1[C@@H](n1cnc3c(Cl)cc(Cl)nc31)[C@H](O)[C@@H]2O` [Compound 12, (1R,2R,3S,4R,5S)-4-(5,7-Dichloro-3H-imidazo[4,5-b]pyridin-3-yl)-1-(hydroxymethyl)bicyclo[3.1.0]hexane-2,3-diol], the Ki (in test [1] (setting [3]); at hA2B receptor (setting [2])) was more than 10 µM in each case.

Turning to `COc1ccc(CNc2cc(Cl)nc3c2ncn3[C@H]2[C@H](O)[C@H](O)[C@]3(CO)C[C@H]23)cc1` [Compound 15, (1R,2R,3S,4R,5S)-4-{5-Chloro-7-[(4-methoxy)benzylamino]-3H-imidazo[4,5-b]pyridin-3-yl}-1-(hydroxymethyl)bicyclo[3.1.0]hexane-2,3-diol], the “A2A displacement at 10 µM” value in test [1] was determined as 2%. Further, at hA2B receptor (setting [2]), the Ki is more than 10 µM.

On to `OC[C@@]12C[C@@H]1[C@@H](n1cnc3c(NCc4ccccc4)cc(Cl)nc31)[C@H](O)[C@@H]2O` [Compound 13, (1R,2R,3S,4R,5S)-4-[7-(Benzylamino)-5-chloro-3H-imidazo[4,5-b]pyridin-3-yl]-1-(hydroxymethyl)bicyclo[3.1.0]hexane-2,3-diol], for which the “A2A displacement at 10 µM” value in test [1] was found to be 13%. Besides, the inhibition constant (Ki) at hA2B receptor (setting [2]) was more than 10 µM.

For `Nc1cc(Cl)nc2c1ncn2[C@H]1[C@H](O)[C@H](O)[C@]2(CO)C[C@H]12` [Compound 16, (1R,2R,3S,4R,5S)-4-(7-Amino-5-chloro-3H-imidazo[4,5-b]pyridin-3-yl)-1-(hydroxymethyl)bicyclo[3.1.0]hexane-2,3-diol], in test [1], the “A2A displacement at 10 µM” value is 42%. Further, at hA2B receptor (setting [2]), the Ki was more than 10 µM.

By Ki is commonly meant a dissociation constant, usually derived from enzyme kinetics or from competition with a known ligand.

The record behind these values is article PMC9000336, “Development of Bicyclo[3.1.0]hexane-Based A3 Receptor Ligands: Closing the Gaps in the Structure–Affinity Relationships” (Molecules, 2022).
